Measurements from US12606528B2, “Methods and materials for inhibiting NF-kB activity” (University of Pittsburgh - Of the Commonwealth System of …, priority 2019, dated 2026).
Like-named read-outs stand apart in the source and are kept apart here.

Legend:
[1] = test system: TNF release; assay: TNF assay: TNF release from LPS-stimulated human PBMCs (TNF ELISA); format: cell-based; details: PBMC, read-out: IC50 (TNF assay)
Procedure, shortened: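 Human PBMCs at 10k/well pretreated with compound dilutions 2 h, then stimulated with LPS (10 ng/mL) for 18 h. TNF in supernatants quantified by ELISA; IC50 for inhibition of TNF release fitted from concentration–response.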

[2] = test system: NF-κB; assay: NF-κB assay: THP1-NF-κB-LUC cells, LPS-stimulated secreted luciferase; format: cell-based; details: THP1-NF-κB-LUC cells, read-out: IC50 (NF-κB assay)
Procedure, shortened: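 THP1-NF-κB-LUC cells (25k/well) were pretreated with compounds for 2 h, then stimulated with LPS (10 ng/mL) for 18 h. Secreted luciferase was measured and normalized to vehicle, and IC50 was fitted from the concentration series.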

[3] = human PBMCs, compounds 2 hours before LPS (10 ng/ml) for 18 hours, supernatant TNF ELISA
[4] = compounds 2 hours before LPS (10 ng/mL) for 18 hours, secreted luciferase

In the case of COc1ccc(NS(=O)(=O)c2cc(Br)cc3c2OC(C)C(=O)N3C)cc1Cl (centres unmarked) [BC19909], the IC50 [1, 3] is reported as greater than 10 µM and the IC50 [2, 4] is reported as greater than 10 µM.

Work on CC1Oc2cc(S(=O)(=O)Nc3ccc(F)cc3)c(Br)cc2N(C)C1=O (centres unmarked) [BC19910] yielded an IC50 [1, 3] greater than 10 µM and an IC50 [2, 4] of 1 to 10 µM.

CC1Oc2c(cc(Br)cc2S(=O)(=O)Nc2ccc(F)cc2)N(C)C1=O (centres unmarked) [BC19911] was tested, and the IC50 [1, 3] was greater than 10 µM and the IC50 [2, 4] was less than 0.1 µM.

Compound Cc1ccc(NS(=O)(=O)c2cc3c(cc2Br)N(C)C(=O)C(C)O3)cc1 (centres unmarked) [BC19912] has an IC50 [1, 3] greater than 10 µM and an IC50 [2, 4] greater than 10 µM.

CCC1Oc2c(cc(Br)cc2S(=O)(=O)Nc2ccc(F)cc2F)N(C)C1=O (centres unmarked) [BC19913] showed an IC50 [1, 3] greater than 10 µM and an IC50 [2, 4] of less than 0.1 µM.

Work on CCC1Oc2cc(S(=O)(=O)Nc3ccc(F)cc3F)c(Br)cc2N(C)C1=O (centres unmarked) [BC19914] yielded an IC50 [1, 3] greater than 10 µM and an IC50 [2, 4] of 0.1 to 1 µM.

Compound CCc1cccc(NS(=O)(=O)c2cc(Br)cc3c2OC(CC)C(=O)N3C)c1 (centres unmarked) [BC19915] has an IC50 [1, 3] greater than 10 µM and an IC50 [2, 4] of less than 0.1 µM.

CCc1cccc(NS(=O)(=O)c2cc3c(cc2Br)N(C)C(=O)C(CC)O3)c1 (centres unmarked) [BC19916] was tested, and the IC50 [1, 3] was greater than 10 µM and the IC50 [2, 4] was 1 to 10 µM.

O=C(O)c1cc2c(c(NS(=O)(=O)c3ccc(F)c(F)c3)c1)N1CCCC1C(=O)N2 (centres unmarked) [BC19917] gave an IC50 ([1]; LPS-stimulated human PBMCs, TNF ELISA) greater than 10 µM and an IC50 ([2]; LPS-stimulated) greater than 10 µM.

COc1ccc(NS(=O)(=O)c2cc3c(cc2Br)N(C)C(=O)C(C)O3)cc1Cl (centres unmarked) [BC19919] showed an IC50 [1, 3] greater than 10 µM and an IC50 [2, 4] greater than 10 µM.

For CC1Oc2cc(S(=O)(=O)Nc3ccc(C#N)cc3)c(Br)cc2N(C)C1=O (centres unmarked) [BC19920], the IC50 [1, 3] was greater than 10 µM and the IC50 [2, 4] was 0.1 to 1 µM.

With CCC1Oc2c(cc(Br)cc2S(=O)(=O)Nc2ccc(OC(F)(F)F)cc2)N(C)C1=O (centres unmarked) [BC19921] the IC50 [1, 3] was 1 to 10 µM and the IC50 [2, 4] was less than 0.1 µM.

CCC1Oc2cc(S(=O)(=O)Nc3ccc(OC(F)(F)F)cc3)c(Br)cc2N(C)C1=O (centres unmarked) [BC19922] gave an IC50 [1, 3] greater than 10 µM and an IC50 [2, 4] of less than 0.1 µM.

CCC1Oc2c(cc(Br)cc2S(=O)(=O)Nc2ccc(C)c(F)c2)N(C)C1=O (centres unmarked) [BC19923] was tested, and the IC50 [1, 3] was 1 to 10 µM and the IC50 [2, 4] was less than 0.1 µM.

CCC1Oc2cc(S(=O)(=O)Nc3ccc(C)c(F)c3)c(Br)cc2N(C)C1=O (centres unmarked) [BC19924] was tested, and the IC50 [1, 3] was 1 to 10 µM and the IC50 [2, 4] was less than 0.1 µM.

In the case of CCC1Oc2c(cc(Br)cc2S(=O)(=O)Nc2ccc(F)c(F)c2)N(C)C1=O (centres unmarked) [BC19925], the IC50 [1, 3] is reported as 1 to 10 µM and the IC50 [2, 4] is reported as less than 0.1 µM.

Compound CCC1Oc2cc(S(=O)(=O)Nc3ccc(F)c(F)c3)c(Br)cc2N(C)C1=O (centres unmarked) [BC19926] has an IC50 [1, 3] greater than 10 µM and an IC50 [2, 4] of less than 0.1 µM.

With CCC1Oc2c(cc(Br)cc2S(=O)(=O)Nc2ccccc2)N(C)C1=O (centres unmarked) [BC19927] the IC50 [1, 3] was 1 to 10 µM and the IC50 [2, 4] was less than 0.1 µM.

CCC1Oc2cc(S(=O)(=O)Nc3ccccc3)c(Br)cc2N(C)C1=O (centres unmarked) [BC19928] gave an IC50 [1, 3] of 1 to 10 µM and an IC50 [2, 4] of 0.1 to 1 µM.

In the case of CCC1Oc2c(cc(Br)cc2S(=O)(=O)Nc2ccc(Cl)cc2)N(C)C1=O (centres unmarked) [BC19929], the IC50 [1, 3] is reported as 1 to 10 µM and the IC50 [2, 4] is reported as less than 0.1 µM.

With CCC1Oc2cc(S(=O)(=O)Nc3ccc(Cl)cc3)c(Br)cc2N(C)C1=O (centres unmarked) [BC19930] the IC50 [1, 3] was greater than 10 µM and the IC50 [2, 4] was 0.1 to 1 µM.

CCc1ccc(NS(=O)(=O)c2cc(Br)cc3c2OC(CC)C(=O)N3C)cc1 (centres unmarked) [BC19931] was tested, and the IC50 [1, 3] was 1 to 10 µM and the IC50 [2, 4] was less than 0.1 µM.

Compound CCc1ccc(NS(=O)(=O)c2cc3c(cc2Br)N(C)C(=O)C(CC)O3)cc1 (centres unmarked) [BC19932] has an IC50 [1, 3] of 1 to 10 µM and an IC50 [2, 4] of less than 0.1 µM.

In the case of CCC1Oc2c(cc(Br)cc2S(=O)(=O)Nc2ccc(C(C)C)cc2)N(C)C1=O (centres unmarked) [BC19933], the IC50 [1, 3] is reported as 1 to 10 µM and the IC50 [2, 4] is reported as less than 0.1 µM.

For CCC1Oc2cc(S(=O)(=O)Nc3ccc(C(C)C)cc3)c(Br)cc2N(C)C1=O (centres unmarked) [BC19934], the IC50 [1, 3] was 1 to 10 µM and the IC50 [2, 4] was 0.1 to 1 µM.

CCC1Oc2c(cc(Br)cc2S(=O)(=O)Nc2ccc(OC)cc2)N(C)C1=O (centres unmarked) [BC19935] was tested, and the IC50 [1, 3] was 1 to 10 µM and the IC50 [2, 4] was less than 0.1 µM.

For CCC1Oc2cc(S(=O)(=O)Nc3ccc(OC)cc3)c(Br)cc2N(C)C1=O (centres unmarked) [BC19936], the IC50 [1, 3] was greater than 10 µM and the IC50 [2, 4] was less than 0.1 µM.

CCC1Oc2c(cc(Br)cc2S(=O)(=O)Nc2ccc(C)c(Cl)c2)N(C)C1=O (centres unmarked) [BC19937] gave an IC50 [1, 3] of 1 to 10 µM and an IC50 [2, 4] of less than 0.1 µM.

Work on CCC1Oc2cc(S(=O)(=O)Nc3ccc(C)c(Cl)c3)c(Br)cc2N(C)C1=O (centres unmarked) [BC19938] yielded an IC50 [1, 3] of 1 to 10 µM and an IC50 [2, 4] of 0.1 to 1 µM.

Compound COc1ccc2[nH]cc(S(=O)(=O)c3ccc(F)c(F)c3)c(=O)c2n1 [BC 19203] has an IC50 [1, 3] greater than 10 µM and an IC50 [2, 4] of 1 to 10 µM.

For O=S(=O)(c1ccc(Br)cc1)c1cnccc1O [BC 19460], the IC50 [1, 3] was greater than 10 µM and the IC50 [2, 4] was greater than 10 µM.
